Laboratory results: US4067997A, “Synergistic microbecidal composition and method” (priority 1976, dated 1978)
≈ marks a conversion by molar mass, not a printed value. Read-outs that look alike come from different tables or passages of the source.

What was measured:
Micrococci = assay: MIC, broth dilution (Examples I/II); assay type: cell-based, Micrococcus sp.
Description: (§1) In order to establish comparative bactericidal and fungicidal results with homologous fatty acids, a series of experiments was performed with thirty straight-chain fatty acids and derivatives thereof. Eight different gram-negative and twelve different gram-positive organisms, representing a very broad spectrum of organisms, were used in these experiments including the fungus Candida (a yeast). Additionally, fatty acids were chosen to show the effects of saturation versus unsaturation, in the fatty acid claim. Standard solutions of the fatty acids and their derivatives were prepared by first dissolving the weighed compounds in 1 to 2 ml of 95% ethanol and immediately pouring this solution into 200 ml of Tripticase Soy Broth. These lipid compounds which are insoluble in water and broth precipitated into very small crystals or droplets. The tubes containing the suspension were warmed to approximately 70° C and were then placed in an ultrasonic tank for further solubilization of the lipid derivatives.
(§2) Standard solutions (or suspensions) at 1,000 μg/ml were twofold serially diluted with additional broth to a concentration of 125 μg/ml. A 4-ml amount of each dilution was then quickly, and with constant agitation, dispensed into appropriately labeled screw-capped glass tubes (16 by 125 mm). The tubes were sterilized with steam at 15 psi for 15 minutes. After sterilization, all tubes were cooled and incubated overnight at 35° C to insure sterility.
(§3) All compounds were compared on a molar (micromoles/milliliter) rather than on a mass basis. In the following lists of organisms used, those followed by a parenthetical number are registered with the American Type Culture Collection (ATCC); the remainder were isolates from Providence Hospital or Northland Laboratory.
(§4) One drop (0.04 ± 0.01 ml) of an 18-hr broth culture containing 10^7 and 10^9 organisms/ml was added to each dilution of the test compound, as well as to a tube of plain broth which served as the positive control. After inoculation, the contents of each tube were well mixed, and the tubes were incubated at 35° C in a 5% carbon dioxide + […] atmosphere.
(§5) The MIC is defined as the lowest concentration of compound at which no […] evidence of growth was observed when turbidity of the inoculated broth dilutions was compared with control tubes. […] Only a one-tube difference between the bactericidal and bacteriostatic concentrations was normally observed.
(§6) Standard solutions (1000 μg/ml) of three fatty acids and polyglycerol esters thereof were prepared as described in Example I. Also sucrose esters were prepared by transferring the weighed compounds (0.2 gm. dissolved in 1 ml absolute methanol) into 200 ml of sterile Trypticase Soy Broth (TSB). These standard solutions (1000 μg/ml) were twofold serially diluted with additional sterile broth to a concentration of 125 μg/ml. A 3.8 aliquot of each dilution was asceptically delivered into sterile screw-capped culture tubes. All tubes were incubated overnight at 36° C to insure sterility. The microorganisms used in this example were the same as those used in Example I.
(§7) The inoculum, 0.05 ml of an 13-24 hour TSB culture (approximately 10^9 organisms/ml) was asceptically delivered into all dilutions of the compounds, mixed well, and incubated at 36° C. A tube of inoculated broth without the compound served as a positive control and an uninoculated set of dilutions incubated along with the test dilutions, served as a negative control.
(§8) In those cases in which the test compound itself caused turbidity, an aliquot (0.015 ml) of the mixed broth was inoculated onto an agar plate and incubated at 36° C for examination, as described in Example I. The control procedure of Example I was also repeated. The lauric, capric, and oleic acids were used as internal controls and for comparison to Example I. The minimal inhibitory concentrations (μmole/ml) for the compounds studied are given in Tables 7 and 8.

[1] = system: Streptococcus β-hemolytic Non-A; assay: MIC, broth dilution (Examples I/II); assay type: cell-based, beta-hemolytic streptococci non-group A
Description: as §1, §2, §3, §4, §5, §6, §7, §8

Streptococcus Group A = assay: MIC, broth dilution (Examples I/II); assay type: cell-based, beta-hemolytic streptococci Group A
Outline: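 MIC values were determined in TSB tube dilutions, 1,000 down to 125 μg/ml, using sonicated lipid suspensions and ~10^9 organisms/ml inocula incubated at 35–36° C, partly under 5% CO2. Growth absence was judged by turbidity or agar subculture, with results converted to μmol/ml.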

Corynebacteria = assay: MIC, broth dilution (Examples I/II); assay type: cell-based, Corynebacterium sp. (10700)
Description: as §1, §2, §3, §4, §5, §6, §7, §8

Streptococcus Group D = assay: MIC, broth dilution (Examples I/II); assay type: cell-based; settings: for MIC: Table 7, Strep. Grp. D, > = no inhibition, max. tested
Description: as §1, §2, §3, §4, §5, §6, §7, §8

S. epidermidis = assay: MIC, broth dilution (Examples I/II); assay type: cell-based; settings: Table 7, Staph epider.; > = no inhibition, max. tested
Description: as §1, §2, §3, §4, §5, §6, §7, §8

Sarcina = assay: MIC, broth dilution (Examples I/II); assay type: cell-based, Sarcina lutea (9431); settings: Table 7, Sarcina; > = no inhibition, max. tested
Description: as §1, §2, §3, §4, §5, §6, §7, §8

S. aureus = assay: MIC, broth dilution (Examples I/II); assay type: cell-based, Staphylococcus aureus
Description: as §1, §2, §3
One drop (0.04 ± 0.01 ml) of an 18-hr broth culture containing 10^7 and 10^9 organisms/ml was added to each dilution of the test compound, as well as to a tube of plain broth which served as the positive control. […]

Nocardia asteroides = assay: MIC, broth dilution (Examples I/II); assay type: cell-based, Nocardia asteroids (3308)
Description: as §1, §2, §3, §4, §5, §6, §7, §8

Saccharomyces cerevisiae = assay: MIC, broth dilution (Example II); assay type: cell-based; settings: 18 h, read-out: Inhibitory concentration
Description: as §6, §7
In those cases in which the test compound itself caused turbidity, an aliquot (0.015 ml) of the mixed broth was inoculated onto an agar plate and incubated at 36° C for examination, as described in Example I. The control procedure of Example I was also repeated. […]

E. coli = assay: MIC, broth dilution (Example II); assay type: cell-based, Escherichia coli
Description: Proteus vulgaris, P. mirabilis (14273), P. rettgeri (9250), Escherichia coli, Serratia marcescens (13880), Enterobacter-Klebsiella, Pseudomonas aeruginosa (10145), and Salmonella typhimurium.
as §6
The inoculum, 0.05 ml of an 13-24 hour TSB culture (approximately 10^9 organisms/ml) was asceptically delivered into all dilutions of the compounds, mixed well, and incubated at 36° C. A tube of inoculated broth without the compound served as a positive control and an uninoculated set of dilutions incubated along with the test dilutions, served as a negative control. […]

Pneumococci = assay: MIC, broth dilution (Examples I/II); assay type: cell-based, pneumococcus (63001); settings: Table 1, Pneumococci
Description: as §1, §2, §3, §4, §5, §6, §7, §8

Aspergillus niger = assay: MIC, agar dilution method (Example XVI); assay type: cell-based; settings: Aspergillus niger
Excerpt: (§9) In a manner similar to that described in Example V, the effectiveness of certain food-grade microbecides are compared with mono-esters in an agar dilution method. The very favorable results may be noted from Table 19.

Staphylococcus aureus = assay: MIC, agar dilution method (Example XVI); assay type: cell-based; settings: Staphylococcus aureus
Excerpt: as §9

Canadida albicans = assay: MIC, agar dilution method (Example XVI); assay type: cell-based
Excerpt: as §9

Escherichia coli = assay: MIC, agar dilution method (Example XVI); assay type: cell-based; settings: Escherichia coli
Excerpt: as §9

Pseudomonas aeruginosa = assay: MIC, agar dilution method (Example XVI); assay type: cell-based; settings: Pseudomonas aeruginosa
Excerpt: as §9

Bacillus subtilis = assay: MIC, agar dilution method (Example XVI); assay type: cell-based; settings: Bacillus subtilis
Excerpt: as §9

[2] = system: nine gram-positive organisms and the yeast/fungus Candida; assay: MIC, broth dilution, over all organisms (Examples I/II); assay type: cell-based
Description: as §1, §2, §3
Staphylococcus aureus, S. epidermidis, beta-hemolytic streptococci (Group A and non-group A), group D streptococcus, Bacillus subtilis (6051), Sarcina lutea (9431), Micrococcus sp., Candida albicans, Nocardia asteroids (3308), Corynebacterium sp. (10700), and pneumococcus (63001).
as §4, §5
Table 5 presents a comparison of the C10 and C12 free acids and their glyceryl derivatives, and Table 6 gives the corresponding ranges of activity.
as §6
The inoculum, 0.05 ml of an 13-24 hour TSB culture (approximately 10^9 organisms/ml) was asceptically delivered into all dilutions of the compounds, mixed well, and incubated at 36° C. […]

S. pyogenes = assay: Growth curve by optical density (Example IV, FIG. 3); assay type: cell-based, streptococcus pyogenes; settings: 24 hours
Description: To a series of containers is added 40 ml of Trypticase Soy Broth and 0.5 ml of streptococcus pyogenes (10^8 organisms/ml). To respective containers are added the following: (1) 10 μg of glycerol 1-mono-laurinand 10 μg of glycerol dilaurin; (2) 5 μg of glycerol 1-mono-laurin and 5 μg of glycerol dilaurin; (3) 10 μg of glycerol 1-mono-laurin; and (4) 5 μg of glycerol 1-mono-laurin; and (5) a control without any additives. The rate of growth of the S. pyogenes was followed for 24 hours at 6 hour intervals by reading the optical density of the cultures at […] in a spectrophotometer.

gram-positive organisms = assay: Inhibition, broth dilution (Example I); assay type: cell-based; settings: read-out: Inhibitory concentration
Description: as §1
(§10) Standard solutions (or suspensions) at 1,000 μg/ml were twofold serially diluted with additional broth to a concentration of 125 μg/ml. A 4-ml amount of each dilution was then quickly, and with constant agitation, dispensed into appropriately labeled screw-capped glass tubes (16 by 125 mm). The tubes were sterilized with steam at 15 psi for 15 minutes. […]

gram-negative organisms = assay: Inhibition, broth dilution (Example I); assay type: cell-based
Description: as §1, §10

Molecule	MIC (Micrococci; Table 7, Micrococci) [µM]	MIC ([1]; Table 7, Strep. β-hemo. Non-A) [µM]	MIC (Streptococcus Group A; Table 7, Strep. Grp. A) [µM]	MIC (Corynebacteria; Table 7, Cornebacteria) [µM]	MIC (Streptococcus Group D) [µM]	MIC (S. epidermidis) [µM]	MIC (Sarcina) [µM]	also measured
Hexaglycerol monocaprate	790	790	190	390	> 1580	> 1580	> 1580	–
CCCCCCCCCCC(O)C(=O)OC (stereo not drawn) [Methyl, α-hydroxylaurate]	–	–	–	–	–	–	–	MIC (S. aureus; Staphylococcus aureus, S. aureus, read-out: Inhibitory concentration): 540 µM (≈ 124 µg/mL); MIC (Streptococcus Group A; Group A Strep, read-out: Inhibitory concentration): 540 µM (≈ 124 µg/mL); MIC (Nocardia asteroides; Nocardia asteroides, read-out: Inhibitory concentration): 4340 µM (≈ 1000 µg/mL); Inhibition in words (Streptococcus Group D; Group D Strep): Neither compound was inhibitory; MIC (Saccharomyces cerevisiae): 540 µM (≈ 124 µg/mL); Inhibition in words (E. coli): Neither compound was inhibitory
Triglycerol monocaprate	1260	630	150	320	> 2500	> 2500	2500	MIC (S. aureus; Table 7, Staph aureus, > = no inhibition, max. tested): > 2500 µM
CC/C=C\C/C=C\C/C=C\CCCCCCCC(=O)O [Linolenic]	–	–	–	–	–	–	–	MIC (Micrococci; Table 1, Micrococci): 488 µM (≈ 136 µg/mL); MIC (S. aureus; Table 1, S. aureus): 1790 µM (≈ 498 µg/mL); MIC (Pneumococci): 179 µM (≈ 49.8 µg/mL); MIC ([1]; Table 1, Streptococcus β-hemolytic Non-A): 350 µM (≈ 97.5 µg/mL); MIC (Streptococcus Group A; Table 1, Streptococcus Group A): 350 µM (≈ 97.5 µg/mL); MIC (Corynebacteria; Table 1, Corynebacteria): 179 µM (≈ 49.8 µg/mL); MIC (Nocardia asteroides; Table 1, Nocardia asteroides): 488 µM (≈ 136 µg/mL)
CCCCCCCCCCCC(=O)OCC(O)CO (stereo not shown) [1-mono-laurin]	–	–	–	–	–	–	–	MIC (Aspergillus niger): > 2500 µg/mL; MIC (Staphylococcus aureus): 39 µg/mL (≈ 0.142 mM); MIC (Canadida albicans): > 2500 µg/mL; MIC (Escherichia coli): > 2500 µg/mL; MIC (Pseudomonas aeruginosa): > 2500 µg/mL; MIC (Bacillus subtilis): 39 µg/mL (≈ 0.142 mM); Activity relative to 2-mono-laurin [2]: as active as the 2-mono-laurin; Activity in words ([2]; Table 6 footnote): Highly active on all organisms except streptococcus Group D; Antimicrobial activity in words (growth curve) (S. pyogenes): responsible for all antimicrobial activity
Triglycerol monolaurate	290	590	290	240	> 2360	> 2360	1180	–
Hexaglycerol monolaurate	380	380	190	380	> 1520	> 1520	> 1520	–
Decaglycerol monolaurate	530	530	260	530	> 1060	> 1060	> 1060	–
glycerol dilaurin	–	–	–	–	–	–	–	Antimicrobial activity in words (growth curve) (S. pyogenes): essentially inactive
CCCCCCCCCCCCOS(=O)(=O)[O-].[Na+] [sodium lauryl sulfate]	–	–	–	–	–	–	–	MIC (gram-positive organisms): 3470 µM; Inhibition in words (gram-negative organisms): non-inhibitory
